Legend:
ERRα = target: T1, ERRα (Homo sapiens, UniProt P11474); assay: ThermoFluor thermal shift assay, ERRα; assay type: binding; conditions: 100 μM test compound; 0.1 mg/mL protein, 25 mM HEPES pH 8.0, 25 μM ANS, 2% DMSO; Tm free protein 54.4 °C; read-out: ΔTm, thermal stabilization of ERRα
T1 sequence (P11474 193-421 limits assumed): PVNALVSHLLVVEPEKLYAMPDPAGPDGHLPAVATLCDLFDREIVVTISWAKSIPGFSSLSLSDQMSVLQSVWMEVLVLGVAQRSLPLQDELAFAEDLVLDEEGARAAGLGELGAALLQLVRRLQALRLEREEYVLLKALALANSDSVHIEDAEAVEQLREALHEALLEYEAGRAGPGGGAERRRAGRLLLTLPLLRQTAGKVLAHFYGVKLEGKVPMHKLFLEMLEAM

ERRβ = target: T2, ERRβ (Homo sapiens, UniProt O95718); assay: ThermoFluor thermal shift assay, ERRβ; assay type: binding; conditions: 100 μM test compound; 0.1 mg/mL protein, 25 mM HEPES pH 8.0; Tm free protein 47.5 °C; read-out: ΔTm, thermal stabilization of ERRβ
T2 sequence (O95718 208-432 limits assumed): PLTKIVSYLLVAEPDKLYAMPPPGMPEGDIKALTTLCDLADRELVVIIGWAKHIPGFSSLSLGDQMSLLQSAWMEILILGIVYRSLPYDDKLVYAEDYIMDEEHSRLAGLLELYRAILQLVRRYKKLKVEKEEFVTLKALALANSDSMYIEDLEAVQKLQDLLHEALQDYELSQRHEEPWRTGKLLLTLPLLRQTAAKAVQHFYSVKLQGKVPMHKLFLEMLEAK

ERα = target: T3, ERα (Homo sapiens, UniProt P03372); assay: ThermoFluor thermal shift assay, ERα; assay type: binding
T3 sequence (P03372 1-595): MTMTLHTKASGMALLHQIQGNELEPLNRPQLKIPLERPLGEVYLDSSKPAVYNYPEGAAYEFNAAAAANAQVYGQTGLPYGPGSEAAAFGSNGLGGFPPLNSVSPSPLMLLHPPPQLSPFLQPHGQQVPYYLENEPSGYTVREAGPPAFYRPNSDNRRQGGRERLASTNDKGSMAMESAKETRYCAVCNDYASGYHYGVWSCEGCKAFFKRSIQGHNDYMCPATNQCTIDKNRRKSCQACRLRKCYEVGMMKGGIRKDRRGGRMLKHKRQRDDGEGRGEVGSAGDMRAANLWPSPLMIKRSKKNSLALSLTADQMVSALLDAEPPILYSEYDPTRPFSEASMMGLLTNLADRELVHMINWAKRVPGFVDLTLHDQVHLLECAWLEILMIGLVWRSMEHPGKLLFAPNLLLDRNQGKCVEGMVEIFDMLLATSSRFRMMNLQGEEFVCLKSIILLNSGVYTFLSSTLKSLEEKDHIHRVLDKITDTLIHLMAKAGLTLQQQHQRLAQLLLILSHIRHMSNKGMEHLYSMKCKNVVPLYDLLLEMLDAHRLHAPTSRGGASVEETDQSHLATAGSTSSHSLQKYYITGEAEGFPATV

ERβ = ERβ (Homo sapiens, UniProt Q92731); assay: ThermoFluor thermal shift assay, ERβ; assay type: binding
ERRγ-SRC2 complex = target: T4, ERRγ-SRC2 complex (Homo sapiens, UniProt P62508); assay: TR-FRET co-activator recruitment assay; assay type: biochemical; conditions: for Displacement of co-activator peptide from ERRγ (antagonism), in words: 6 nM ERRγ LBD, 6 nM GST-SRC-2 peptide
T4 construct: made in house; host or cells: E. coli BL21(DE3) (ERRγ LBD)
T4 sequence (P62508 229-458): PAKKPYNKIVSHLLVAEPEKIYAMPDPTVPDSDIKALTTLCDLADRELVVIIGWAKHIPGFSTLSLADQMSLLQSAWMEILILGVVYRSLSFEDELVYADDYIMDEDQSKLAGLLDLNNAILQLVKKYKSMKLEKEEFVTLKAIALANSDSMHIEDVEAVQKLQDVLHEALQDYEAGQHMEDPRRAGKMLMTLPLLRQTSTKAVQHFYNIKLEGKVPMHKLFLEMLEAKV
Experimental: For FRET measurements, the reaction was buffered in 25 mM Tris pH 8, 2.5 mM Hepes, 20 mM KCl, 1 mM DTT, and 0.05 mg/mL delipidated BSA.
Time-resolved Fluorescence resonance energy transfer (FRET) experiments were performed to examine the functional response of ERRγ ligands.
For FRET measurements, the reaction was buffered in 25 mM Tris pH 8, 2.5 mM Hepes, 20 mM KCl, 1 mM DTT, and 0.05 mg/mL BSA (-lipids). […] Reactions were allowed to reach equilibrium at 25° C. for 4-18 hours before collecting data on the Analyst from LJL Biosystems (Molecular Devices Sunnyvale, Calif.). […] Dose response curves were fitted using a hyperbolic equation and the data reported is the average of three independent experiments.

ERRγ = target: T5, ERRγ (Homo sapiens, UniProt P62508); assay: Isothermal titration calorimetry; assay type: binding; conditions: isothermal titration calorimetry
T5 construct: 6His; made in house; host or cells: E. coli BL21(DE3)
T5 sequence (P62508 229-458): T4 sequence (P62508 229-458)
Experimental: The heat of interaction of the ligands with ERRγ molecules was measured by using the Omega titration calorimeter from Microcal Inc. In a typical titration, 1.4 mL of a 20 μM protein solution is titrated with a ligand solution of ˜0.4 mM concentration using a 100 μL syringe by ˜20 injections of 5-6 μL each. This syringe is also used to mix the reactants completely in the sample cell by rotating it at 400 rpm. For each injection, the area under the resulting peak is proportional to the heat of interaction, Q. Once this heat is corrected for the titrant dilution and normalized by the titrant solution concentration it becomes equal to the binding enthalpy, ΔHb, under nonsaturating conditions. The precision of the heat of each injection is about 0.5 μcal. One method of determining ΔHb is to average several intermediate peaks from the different sites. In addition to the binding enthalpies, one can obtain binding affinities, and overall stoichiometries of the complexes. The experimental calorimetric binding isotherm is the dependence of the total heat, Qr, (or dQrldX T) on the total concentration of ligand added, Xr. The above three parameters for each type of site are determined iteratively using the Marquardt algorithms as described previously.

pBIND-Gal4-ERRγ = assay: Cell based reporter (trans-activation) assay in HEK293E cells; conditions: luciferase reporter, Gal4-ERRγ and pACT-SRC2, 24 hours of compound treatment
Experimental: A cell based reporter assay was used to determine the functional response of the ERRγ hits. Transfections were performed in HEK293E cells that were maintained in DMEM supplemented in glutamine and 10% FBS. Co-transfections of 4 μg of a luciferase reporter plasmid and 4 μg of each pBIND-Gal4-ERRγ and pACT-SRC2 plasmids per T-75 flask were done using Lipofectamine as per manufacturers instructions. Twenty-four hours post-transfection, the cells were seeded in 96-well plates at density of 50,000 cells per well in assay media (DMEM phenol free, 5% charcoal stripped FBS). […] After 24 hours of compound treatment, cells were lysed and treated with the Promega Dual-Glo system. Firefly Luciferase activity was read using a luminescence plate reader, and data were normalized against Renilla luciferase activity. Data were fitted using subroutines available from GraphPad.

Chain of ERβ (Q92731 whole entry, species assumed, the tested form may be a part): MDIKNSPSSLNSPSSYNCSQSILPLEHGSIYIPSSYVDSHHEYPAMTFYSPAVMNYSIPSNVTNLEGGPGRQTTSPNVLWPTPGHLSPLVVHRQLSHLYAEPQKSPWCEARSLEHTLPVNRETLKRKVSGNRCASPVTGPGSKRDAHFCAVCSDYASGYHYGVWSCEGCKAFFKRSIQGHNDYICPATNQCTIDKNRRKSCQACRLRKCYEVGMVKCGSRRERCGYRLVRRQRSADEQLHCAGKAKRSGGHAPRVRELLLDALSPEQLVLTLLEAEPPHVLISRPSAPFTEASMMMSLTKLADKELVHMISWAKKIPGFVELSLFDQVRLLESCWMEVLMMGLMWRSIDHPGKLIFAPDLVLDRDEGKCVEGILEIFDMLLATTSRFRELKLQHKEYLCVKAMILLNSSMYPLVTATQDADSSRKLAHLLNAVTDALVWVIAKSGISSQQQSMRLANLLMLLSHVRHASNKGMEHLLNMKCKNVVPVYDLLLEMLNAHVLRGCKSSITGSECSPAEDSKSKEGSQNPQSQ

SMILES: Cc1cc(O)ccc1Cl [ClCH3Ph, 4-chloro, 3-methyl phenol]
- ΔTm at 100 µM (ERRα): 0.1 °C
- ΔTm at 100 µM (ERRβ): 0.2 °C
- Kd (ERα; calculated at reference temperature 25 °C from ΔTm of Table II, ΔHu 112 kcal/mol, read-out: Estimated dissociation constant, ERα): 37.3 µM
- ΔTm at 100 µM (ERα; pH 8, read-out: ΔTm, thermal stabilization of ERα): 0.4 °C
- Kd (ERβ): 3.05 µM
- ΔTm at 100 µM (ERβ; pH 8, read-out: ΔTm, thermal stabilization of ERβ): 2.4 °C
- Enhancement in the affinity of the receptor for co-activator peptide fragments, in words (ERRγ-SRC2 complex): not able to demonstrate
- Displacement of co-activator peptide from ERRγ (antagonism), in words (ERRγ-SRC2 complex): neither ligand displaced co-activator peptide
- Displacement of co-activator peptide from ERRγ (antagonism), in words (ERRγ-SRC2 complex; listed as ClCh3PH): ineffective
- Binding enthalpy ΔHb (ERRγ): ~-21 kcal/mol
- Change in transcriptional activity in trans-activation cellular assay, in words (pBIND-Gal4-ERRγ): not able to demonstrate

— patent publication US7655756B2 (Johnson & Johnson Pharmaceutical Research & Development, LLC, priority 2005, dated 2010)
